Assay results published in US9173396B2, “Heterocyclic compounds as pesticides” (BAYER INTELLECTUAL PROPERTY GMBH, priority 2010, dated 2015).
Like-named read-outs stand apart in the source and are kept apart here.

Assays:
[1] = system: green peach aphid (Myzus persicae); assay: Myzus test (spray treatment); assay type: in vivo; details: foliar, 144 h, application rate of 500 g/ha, after 6 days, Chinese cabbage leaf discs, 100% = all aphids killed, read-out: effect in %
Protocol: Myzus Test (Spray Treatment)
• Solvents: 78 parts by weight of acetone • 1.5 parts by weight of dimethylformamide • Emulsifier: 0.5 part by weight of alkylaryl polyglycol ether
(§1) To produce a suitable preparation of active compound, 1 part by weight of active compound is mixed with the stated amounts of solvent and emulsifier, and the concentrate is diluted with emulsifier-containing water to the desired concentration. Discs of Chinese cabbage (Brassica pekinensis) infected by all stages of the green peach aphid (Myzus persicae) are sprayed with an active compound preparation of the desired concentration.
After 6 days, the effect in % is determined. 100% means that all of the aphids have been killed; 0% means that none of the aphids have been killed.

[2] = system: greenhouse red spider mite (Tetranychus urticae); assay: Tetranychus test (OP-resistant/spray treatment); assay type: in vivo; details: application rate of 500 g/ha; after 6 days; bean leaf discs; 100% = all spider mites killed
Protocol: Tetranychus Test (OP-Resistant/Spray Treatment)
• Solvents: 78.0 parts by weight of acetone • 1.5 parts by weight of dimethylformamide • Emulsifier: 0.5 part by weight of alkylaryl polyglycol ether
as §1, with “bean leaves (Phaseolus vulgaris) which are infested” for “Chinese cabbage (Brassica pekinensis) infected”, “greenhouse red spider mite (Tetranychus urticae)” for “green peach aphid (Myzus persicae)”
After 6 days, the effect in % is determined. 100% means that all of the spider mites have been killed; 0% means that none of the spider mites have been killed.

[3] = HCOOH (formic acid), logP, HCOOH, Table 1
[4] = log P, HPLC-MS, eluent not stated
[5] = HCOOH (formic acid), log P (HCOOH), HPLC-MS, HCOOH

SMILES	chromatographic logP (log P by HPLC-MS; [3])	chromatographic logP (log P by HPLC-MS; [4])	pest or weed control at 500 g/ha [1]	also measured
Cn1nc(-c2cccc(Br)n2)cc1-c1cccnc1 [2-Bromo-6-[1-methyl-5-(pyridin-3-yl)-1H-pyrazol-3-yl]pyridine]				chromatographic logP (log P by HPLC-MS; HCOOH (formic acid)): 1.94
c1cnc(-c2cccc(-c3ncc(-c4cccnc4)s3)n2)nc1 [Compound 17, 2-{6-[5-(Pyridin-3-yl)-1,3-thiazol-2-yl]pyridin-2-yl}pyrimidine]	1.79	1.79	100%	
c1cnc(-c2cccc(-c3coc(-c4cccnc4)c3)n2)nc1 [Compound 11, 2-{6-[5-(Pyridin-3-yl)-3-furyl]pyridin-2-yl}pyrimidine]	1.26	1.26		
c1cnc(-c2cccc(-n3ccc(-c4cccnc4)n3)n2)nc1 [Compound 13, 2-{6-[3-(Pyridin-3-yl)-1H-pyrazol-1-yl]pyridin-2-yl}pyrimidine]	1.2	1.2		
CCc1nn(-c2cccnc2)c(=O)[nH]1 [5-Ethyl-2-(pyridin-3-yl)-2,4-dihydro-3H-1,2,4-triazol-3-one]		0.3		
Fc1cncc(-c2cnc(-c3cccc(-c4ncccn4)n3)s2)c1 [Compound 21, 2-{6-[5-(5-Fluoropyridin-3-yl)-1,3-thiazol-2-yl]pyridin-2-yl}pyrimidine]		2.13	90%	chromatographic logP (log P by HPLC-MS; HPLC-MS, logP, HCOOH, Table 2): 2.13
c1cnc(-c2cccc(-c3nccs3)n2)nc1 [2-[6-(1,3-Thiazol-2-yl)pyridin-2-yl]pyrimidine]		1.43		
c1cnc(-c2cccc(-c3cn(-c4cccnc4)nn3)n2)nc1 [Compound 10, 2-{6-[1-(Pyridin-3-yl)-1H-1,2,3-triazol-4-yl]pyridin-2-yl}pyrimidine]	1.39	1.39	100%	
Cn1nc(-c2cccc(-c3ncccn3)n2)cc1-c1cccnc1 [Compound 2, 2-{6-[1-Methyl-5-(pyridin-3-yl)-1H-pyrazol-3-yl]pyridin-2-yl}pyrimidine]	1.26		100%	chromatographic logP (log P by HPLC-MS; [5]): 1.26
C#Cc1cccc(-c2ncccn2)n1 [2-(6-ethynylpyridin-2-yl)pyrimidine, 2-(6-Ethynylpyridin-2-yl)pyrimidine]		1.05		
CC(C)c1nn(-c2cccnc2)c(=O)n1N [4-Amino-5-isopropyl-2-(pyridin-3-yl)-2,4-dihydro-3H-1,2,4-triazol-3-one]		0.85		
O=C(O)c1cccc(-n2ccc(-c3cncc(F)c3)n2)n1 [6-[3-(5-Fluoro-3-pyridinyl)-1H-pyrazol-1-yl]-2-pyridinecarboxylate]		1.81		
c1cnc(-c2cccc(-n3cc(-c4cccnc4)cn3)n2)nc1 [Compound 9, 2-{6-[4-(Pyridin-3-yl)-1H-pyrazol-1-yl]pyridin-2-yl}pyrimidine]	1.04	1.04	100%	
Brc1cccc(-c2cc(-c3cccnc3)no2)n1 [Compound 1, 2-Bromo-6-[3-(pyridin-3-yl)-1,2-oxazol-5-yl]pyridine]	2.23		100%	chromatographic logP (log P by HPLC-MS; [5]): 2.23
c1cnc(-c2cccc(-n3cnc(-c4cccnc4)c3)n2)nc1 [Compound 3, 2-{6-[4-(Pyridin-3-yl)-1H-imidazol-1-yl]pyridin-2-yl}pyrimidine]	0.73		100%	chromatographic logP (log P by HPLC-MS; [5]): 0.75
Cc1nn(-c2cccnc2)c(=O)[nH]1 [5-Methyl-2-(pyridin-3-yl)-2,4-dihydro-3H-1,2,4-triazol-3-one]		-0.21		
CN(C)C=CC(=O)c1cncc(F)c1 (mixture of isomers) [(E/Z)-3-(Dimethylamino)-1-(5-fluoro-3-pyridinyl)-2-propen-1-one]		0.91		
CC(C)c1nn(-c2cccnc2)c(=O)[nH]1 [5-Isopropyl-2-(pyridin-3-yl)-2,4-dihydro-3H-1,2,4-triazol-3-one]		0.71		
CN(C)S(=O)(=O)NC(=O)c1cccc(-n2ccc(-c3cncc(F)c3)n2)n1 [Compound 22, 6-[3-(5-Fluoro-3-pyridinyl)-1H-pyrazol-1-yl]-N-[(dimethylamino)sulfonyl]-2-pyridinecarboxamide]				chromatographic logP (log P by HPLC-MS; HPLC-MS, log P, eluent not stated): 2.61; chromatographic logP (log P by HPLC-MS; HPLC-MS, logP, HCOOH, Table 2): 2.61
CC(C)c1nn(-c2cccnc2)c(=O)n1-c1cccc(-c2ncccn2)n1 [Compound 14, 5-Isopropyl-2-(pyridin-3-yl)-4-[6-(pyrimidin-2-yl)pyridin-2-yl]-2,4-dihydro-3H-1,2,4-triazol-3-one]	1.77	1.77		
CC1(C)OB(c2coc(-c3cccnc3)c2)OC1(C)C [3-[4-(4,4,5,5-Tetramethyl-1,3,2-dioxaborolan-2-yl)-2-furyl]pyridine]		2.25		
CCc1nn(-c2cccnc2)c(=O)n1-c1cccc(-c2ncccn2)n1 [Compound 15, 5-Ethyl-2-(pyridin-3-yl)-4-[6-(pyrimidin-2-yl)pyridin-2-yl]-2,4-dihydro-3H-1,2,4-triazol-3-one]	1.48			
CCc1nn(-c2cccnc2)c(=O)n1N [4-Amino-5-ethyl-2-(pyridin-3-yl)-2,4-dihydro-3H-1,2,4-triazol-3-one]		0.32		
COC(=O)c1cccc(-n2ccc(-c3cncc(F)c3)n2)n1 [Methyl 6-[3-(5-fluoro-3-pyridinyl)-1H-pyrazol-1-yl]-2-pyridinecarboxylate]		1.07		
C[Si](C)(C)C#Cc1cccc(-c2ncccn2)n1 [2-{6-[(Trimethylsilyl)ethynyl]pyridin-2-yl}pyrimidine]				chromatographic logP (log P by HPLC-MS): 3.11
Fc1cncc(-c2cc[nH]n2)c1 [3-(5-fluoro-3-pyridinyl)-1H-pyrazole, 3-(5-Fluoro-3-pyridinyl)-1H-pyrazole]		0.92		
c1cnc(-c2cccc(-c3cnc(-c4cccnc4)o3)n2)nc1 [Compound 7, 2-{6-[2-(Pyridin-3-yl)-1,3-oxazol-5-yl]pyridin-2-yl}pyrimidine]	1.39	1.39	100%	effect in % [2]: 100%
FC(F)(F)c1cccc(-n2cnc(-c3cccnc3)n2)n1 [Compound 6, 2-[3-(Pyridin-3-yl)-1H-1,2,4-triazol-1-yl]-6-(trifluoromethyl)pyridine]	2.11	2.11	100%	
Cc1nn(-c2cccnc2)c(=O)n1-c1cccc(-c2ncccn2)n1 [Compound 16, 5-methyl-2-(pyridin-3-yl)-4-[6-(pyrimidin-2-yl)pyridin-2-yl]-2,4-dihydro-3H-1,2,4-triazol-3-one]	1.17			
